Values of other authors in patent publication US7989600B2, “Macrolide compounds containing biotin and photo-affinity group for macrolide target identification” (GlaxoSmithKline Istrazivacki Centar Zagreb D.O.O., priority 2005, dated 2011).

Test system: α1-acid glycoprotein from serum
Conditions: dialysis in combination HPLC methods; Castearena et al., J Chemother. 1995

binding to α1-acid glycoprotein from serum: specifically binds
Compound: CC[C@H]1OC(=O)[C@H](C)[C@@H](O[C@H]2C[C@@](C)(OC)[C@@H](O)[C@H](C)O2)[C@H](C)[C@@H](O[C@@H]2O[C@H](C)C[C@H](N(C)C)[C@H]2O)[C@](C)(O)C[C@@H](C)CN(C)[C@H](C)[C@@H](O)[C@]1(C)O [azithromycin]
